Measured values from patent US4314028A, “Fermentation process for producing tallysomycin compounds” (priority 1980, dated 1982).

Tests used:
[1] = test system: Aspergillus fumigatus IAM 2593; assay: MIC, two-fold agar dilution method; assay type: cell-based; settings: Sabouraud agar
Protocol: (§1) The minimum inhibitory concentrations (MIC) of the semibiosynthetic tallysomycin derivatives of the present invention were determined against fungi and gram-positive, gram-negative and acid-fast bacteria by the two-fold agar dilution method. Nutrient agar was used for bacteria and Sabouraud agar for fungi. The results are shown in the table below comparatively with tallysomycin A and B.

[2] = test system: Bacillus subtilis PCI 219; assay: MIC, two-fold agar dilution method; assay type: cell-based; settings: nutrient agar
Protocol: as §1

[3] = test system: Candida albicans IAM 4888; assay: MIC, two-fold agar dilution method; assay type: cell-based; settings: Sabouraud agar
Protocol: as §1

Escherichia coli NIHJ = assay: MIC, two-fold agar dilution method; assay type: cell-based; settings: nutrient agar
Protocol: as §1

Mycobacterium 607 = assay: MIC, two-fold agar dilution method; assay type: cell-based; settings: nutrient agar
Protocol: as §1

Proteus mirabilis A9554 = assay: MIC, two-fold agar dilution method; assay type: cell-based; settings: nutrient agar
Protocol: as §1

Sarcina lutea PCI1001 = assay: MIC, two-fold agar dilution method; assay type: cell-based; settings: nutrient agar
Protocol: as §1

[4] = test system: Staphylococcus aureus Smith; assay: MIC, two-fold agar dilution method; assay type: cell-based; settings: nutrient agar
Protocol: as §1

[5] = test system: Mycobacterium smegmatis strain M6-3; assay: Relative antibacterial potency, paper-disc agar diffusion method; assay type: cell-based; settings: relative to tallysomycin A standard=1000 mcg/mg
Protocol: The relative antibacterial potencies (tallysomycin A standard=1000 mcg/mg) of the tallysomycin derivatives were determined by the paper-disc agar diffusion method using Mycobacterium smegmatis strain M6-3 as the assay organism.

[6] = test system: lysogenic bacterium E. coli W1709 (λ); assay: Prophage induction of lysogenic bacterium (ILB activity); assay type: cell-based; settings: t/c ratio of plaque counts greater than 3.0
Protocol: The activity of prophage induction of lysogenic bacterium E. coli W1709 (λ) was determined according to the method disclosed by Lein et al. in Nature 196: 783-784 (1962). The plaque count was made on the agar plate containing test compound (t) and control plate (c). A t/c ratio of the plaque counts of greater than 3.0 was defined to be a significant level and lysogenic induction activity (ILB activity) was expressed by the minimum inducible concentration of the test compound.

[7] = test system: Lymphocytic leukemia P388; assay: animal or person; assay type: in vivo, BDF1 mice; settings: copper-chelated form unless otherwise stated; for Antitumor activity P388 (ED125): ip, once daily 9 days, dose giving T/C survival of 125%; for Antitumor therapeutic index P388: single dose LD50/ED125
Text: (§2) The antitumor activity of the tallysomycin derivatives was examined in four experimental tumor systems in mice. Lymphocytic leukemia P388 and Lewis lung carcinoma were implanted intraperitoneally into BDF1 mice of either sex at an inoculum size of 3×10^5 and 5×10^5 cells per mouse, respectively. Sarcoma 180 ascites tumor was inoculated intraperitoneally into male dd-strain mice with […] per mouse. Melanotic melanoma B16 was implanted subcutaneously into BDF1 mice with 5×10^5 cells per mouse. Twenty-four hours after the implantation of tumor cells, graded doses of test compounds were administered to mice intraperitoneally in an injection volume of 0.2 ml. per 10 grams of body weight. Test compounds were given once daily for 9 days (qd 1→9 schedule) except for the mice inoculated with Lewis lung carcinoma which were treated for 11 days (qd 1→11). Death or survival of the treated and non-treated (control) animals was recorded daily during the observation period of 45 days after the implantation of tumor cells, and the median survival time was calculated for each of the test (T) and control (C) groups. […] The actual dose giving a T/C of 125% was estimated by linear regression analysis and defined as the effective dose 125 or ED125. The effective dose 150 (ED150) was employed for the evaluation of antitumor effect against Sarcoma 180. In the B16 melanoma experiment the tumor size was measured on day 16 after tumor inoculation, and the dose giving 50% inhibition of tumor growth (ID50) was calculated from regression lines.
(§3) The antitumor therapeutic index was calculated for each derivative from the ratio of toxicity and antitumor activity.

Sarcoma 180 = assay: animal or person; assay type: in vivo, dd-strain mice; settings: copper-chelated form unless otherwise stated; for Antitumor activity S180 (ED150): ip, once daily 9 days, effective dose 150, survival; for Antitumor therapeutic index S180: single dose LD50/ED150
Text: as §2, §3

Melanotic melanoma B16 = assay: Antitumor activity in mice, melanotic melanoma B16; assay type: in vivo, BDF1 mice; settings: copper-chelated form unless otherwise stated; for Antitumor activity B16 (ID50): ip, once daily 9 days, 50% inhibition of tumor growth, day 16, 23040 min; for Antitumor therapeutic index B16: single dose LD50/ID50
Text: as §2, §3

Lewis lung carcinoma = assay: Antitumor activity in mice, Lewis lung carcinoma; assay type: in vivo, BDF1 mice; settings: copper-chelated form unless otherwise stated; for Antitumor activity Lewis lung (ED125): ip, once daily 11 days, dose giving T/C survival of 125%; for Antitumor therapeutic index Lewis Lung: single dose LD50/ED125
Text: as §2, §3

[8] = Acute toxicity, single dose LD50; assay type: in vivo, dd mice; settings: ip, 30 days observation, copper-chelated form unless otherwise stated
Protocol: Graded doses of test compounds were administered intraperitoneally to groups of dd mice. The injection was given one time only or once daily for 9 consecutive days. Death or survival of the animals was recorded for 30 days after the last dose of test compound to calculate the single or multiple median lethal dose (LD50).

| SMILES | minimum inhibitory concentration (MIC) [1] | minimum inhibitory concentration (MIC) [2] | minimum inhibitory concentration (MIC) [3] | minimum inhibitory concentration (MIC) (Escherichia coli NIHJ) | minimum inhibitory concentration (MIC) (Mycobacterium 607) | minimum inhibitory concentration (MIC) (Proteus mirabilis A9554) | minimum inhibitory concentration (MIC) (Sarcina lutea PCI1001) | minimum inhibitory concentration (MIC) [4] | Antibacterial potency [5] | ILB activity (minimum inducible concentration) [6] | Antitumor activity P388 (ED125) [7] | Antitumor therapeutic index P388 [7] | Antitumor activity S180 (ED150) (Sarcoma 180) | Antitumor therapeutic index S180 (Sarcoma 180) | Antitumor activity B16 (ID50) (Melanotic melanoma B16) | Antitumor therapeutic index B16 (Melanotic melanoma B16) | Antitumor activity Lewis lung (ED125) (Lewis lung carcinoma) | Antitumor therapeutic index Lewis Lung (Lewis lung carcinoma) | LD50 single dose [8] |
| --- | --- | --- | --- | --- | --- | --- | --- | --- | --- | --- | --- | --- | --- | --- | --- | --- | --- | --- | --- |
| Cc1c(N)nc(C(CC(N)=O)NCC(N)C(N)=O)nc1C(=O)NC(C(=O)NC(C)C(O)CC(=O)NC(C(=O)NC(OC1OC(C)C(N)C(O)C1O)C(O)c1nc(-c2nc(C(=O)NCCCN)cs2)cs1)C(C)O)C(OC1OC(CO)C(O)C(O)C1OC1OC(CO)C(O)C(OC(N)=O)C1O)c1c[nH]cn1 (stereo not shown) [Tallysomycin S1b] | 1.6 | < 0.05 | 12.5 | 0.4 | < 0.05 | 1.6 | 1.6 | 1.6 | 1,000 μ/mg | 0.31 µg/mL | 2.0 mg/kg/day | 10 | 0.11 mg/kg/day | 173 | 0.15 mg/kg/day | 127 | 0.12 mg/kg/day | 158 | 19 mg/kg/day |
| Cc1c(N)nc(C(CC(N)=O)NCC(N)C(N)=O)nc1C(=O)NC(C(=O)NC(C)C(O)CC(=O)NC(C(=O)NC(OC1OC(C)C(N)C(O)C1O)C(O)c1nc(-c2nc(C(=O)NCCCC(N)CC(=O)NCCC[S+](C)C)cs2)cs1)C(C)O)C(OC1OC(CO)C(O)C(O)C1OC1OC(CO)C(O)C(OC(N)=O)C1O)c1c[nH]cn1 (stereo not shown) [Tallysomycin S2a] | 0.4 | < 0.05 | 6.3 | < 0.05 | < 0.05 | 0.2 | 0.8 | 0.2 | 350 μ/mg | 0.31 µg/mL | > 3.0 mg/kg/day | < 8 | 0.07 mg/kg/day | 357 | 0.17 mg/kg/day | 147 | 0.14 mg/kg/day | 179 | 25 mg/kg/day |
| Cc1c(N)nc(C(CC(N)=O)NCC(N)C(N)=O)nc1C(=O)NC(C(=O)NC(C)C(O)CC(=O)NC(C(=O)NC(OC1OC(C)C(N)C(O)C1O)C(O)c1nc(-c2nc(C(=O)NCCCN(C)C)cs2)cs1)C(C)O)C(OC1OC(CO)C(O)C(O)C1OC1OC(CO)C(O)C(OC(N)=O)C1O)c1c[nH]cn1 (stereo not shown) [Tallysomycin S7b] | 0.4 | 0.1 | > 50 | 0.4 | 3.1 | 6.3 | 12.5 | 6.3 | 380 μ/mg | 0.08 µg/mL | 2.1 mg/kg/day | 14 | 0.14 mg/kg/day | 214 | 0.16 mg/kg/day | 188 | – | – | 30 mg/kg/day |
| Cc1c(N)nc(C(CC(N)=O)NCC(N)C(N)=O)nc1C(=O)NC(C(=O)NC(C)C(O)CC(=O)NC(C(=O)NC(OC1OC(C)C(N)C(O)C1O)C(O)c1nc(-c2nc(C(=O)NCCCC(N)CC(=O)NCCCCN)cs2)cs1)C(C)O)C(OC1OC(CO)C(O)C(O)C1OC1OC(CO)C(O)C(OC(N)=O)C1O)c1c[nH]cn1 (stereo not shown) [Tallysomycin S10a] | 1.6 | 0.04 | 3.1 | 0.4 | 0.2 | 0.8 | 0.4 | 1.6 | 1,450 μ/mg | 0.16 µg/mL | 0.28 mg/kg/day | 96 | 0.08 mg/kg/day | 338 | 0.39 mg/kg/day | 69 | – | – | 27 mg/kg/day |
| Cc1c(N)nc(C(CC(N)=O)NCC(N)C(N)=O)nc1C(=O)NC(C(=O)NC(C)C(O)CC(=O)NC(C(=O)NC(OC1OC(C)C(N)C(O)C1O)C(O)c1nc(-c2nc(C(=O)NCCCN3CCOCC3)cs2)cs1)C(C)O)C(OC1OC(CO)C(O)C(O)C1OC1OC(CO)C(O)C(OC(N)=O)C1O)c1c[nH]cn1 (stereo not shown) [Tallysomycin S12b] | 25 | 0.4 | > 100 | 1.6 | 0.2 | 50 | 12.5 | 12.5 | 390 μ/mg | 0.31 µg/mL | 1.30 mg/kg/day | > 38 | 0.06 mg/kg/day | > 833 | 1.30 mg/kg/day | > 38 | – | – | > 50 mg/kg/day |
| Cc1c(N)nc(C(CC(N)=O)NCC(N)C(N)=O)nc1C(=O)NC(C(=O)NC(C)C(O)CC(=O)NC(C(=O)NC(OC1OC(C)C(N)C(O)C1O)C(O)c1nc(-c2nc(C(=O)NCCCN3CCCCC3C)cs2)cs1)C(C)O)C(OC1OC(CO)C(O)C(O)C1OC1OC(CO)C(O)C(OC(N)=O)C1O)c1c[nH]cn1 (stereo not shown) [Tallysomycin S13b] | 12.5 | 0.8 | > 100 | 0.4 | 0.2 | 12.5 | 6.3 | 6.3 | 1,090 μ/mg | 0.08 µg/mL | 0.70 mg/kg/day | 50 | 0.33 mg/kg/day | 106 | 0.23 mg/kg/day | 152 | – | – | 35 mg/kg/day |
